Results reported in PMC9374667 (Communications Biology, 2022).
Several values for one entry are separate records, joined by “and”; a condition that tells them apart may be missing. Equal values may be shown once.

Assays:
Ikbke = assay: RT-qPCR of Ikbke in eWAT and BAT; assay type: in vivo; settings: db/db mice, both doses of BJ
Excerpt: Total RNA was isolated from 3T3-L1 cells and adipose tissue homogenates using Trizol reagent (Invitrogen, Carlsbad, CA, USA). RNA concentration and purity were examined at 260/280 nm using a nanodrop spectrophotometer (NanoDrop One, Thermo Fisher Scientific, USA). The total RNA was reverse transcribed to cDNA using the EasyScript All-in-One First-Strand cDNA Synthesis SuperMix for qPCR kit (TransGen Biotech, Beijing, China). The quantitative reverse transcription polymerase chain reaction was performed using TransStart Top Green qPCR SuperMix (TransGen Biotech, Beijing, China) and an Applied Biosystems 7500 RealTime PCR System (Life Technologies, USA). Relative expression levels were normalized to gapdh expression and quantified using the 2^-ΔΔCt method. The primers were synthesized by Shanghai Sangon Biotech, and the detailed primer sequences were shown in Supplementary Table 5 in the supplementary materials.

TBK1 [1] = target: T1, TBK1 (Mus musculus, UniProt Q9WUN2); assay: TBK1-knockdown 3T3-L1 adipocytes (siRNA; western blotting, immunofluorescence); assay type: cell-based, Murine; parameters: host or cells: differentiated 3T3-L1 adipocytes (Lipofectamine 2000); TBK1 (western blotting, Figure 9b) / p-AMPK (western blotting, Figure 9c) / UCP1 (western blotting, Figure 9d): unit not given here; settings: for MitoTracker (immunofluorescence, Figure 9f) / UCP1 (immunofluorescence, Figure 9g): replicates 1-12
T1 sequence (Q9WUN2 1-729): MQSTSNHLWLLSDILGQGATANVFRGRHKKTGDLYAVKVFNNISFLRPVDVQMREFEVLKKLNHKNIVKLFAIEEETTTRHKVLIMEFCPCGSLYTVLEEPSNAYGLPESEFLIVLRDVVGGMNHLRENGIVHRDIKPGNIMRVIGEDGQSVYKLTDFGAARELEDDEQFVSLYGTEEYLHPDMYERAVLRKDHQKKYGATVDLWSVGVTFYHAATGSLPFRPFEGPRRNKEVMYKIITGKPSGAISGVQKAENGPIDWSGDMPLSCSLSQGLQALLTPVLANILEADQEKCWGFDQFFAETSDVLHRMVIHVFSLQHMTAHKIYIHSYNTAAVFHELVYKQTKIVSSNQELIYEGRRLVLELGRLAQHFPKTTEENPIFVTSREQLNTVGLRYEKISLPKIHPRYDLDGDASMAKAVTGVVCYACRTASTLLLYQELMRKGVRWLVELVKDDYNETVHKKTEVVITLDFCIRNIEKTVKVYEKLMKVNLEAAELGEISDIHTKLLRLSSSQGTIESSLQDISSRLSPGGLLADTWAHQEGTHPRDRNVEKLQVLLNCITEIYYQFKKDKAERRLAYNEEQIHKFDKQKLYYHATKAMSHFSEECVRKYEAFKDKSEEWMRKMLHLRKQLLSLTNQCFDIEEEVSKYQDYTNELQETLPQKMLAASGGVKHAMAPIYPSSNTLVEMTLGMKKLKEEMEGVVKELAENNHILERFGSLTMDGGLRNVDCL
Procedure: Small interference RNA transfection (siRNA) was performed using 4 μM TBK1 siRNA (siTBK1) or 4 μM […]ε) or corresponding NC siRNA (siNC). The 3T3-L1 adipocytes were washed with PBS for 3 times, fixed with 4% paraformaldehyde solution for 30 min, and then washed again for 3 times. […] The cells were then incubated overnight at 4 °C with the appropriate primary antibodies (1:100 dilution). The next day, the 3T3-L1 adipocytes were washed and incubated at room temperature with goat anti-rabbit secondary antibody or goat anti-mouse secondary antibody (1:1000 dilution) for 2 h and washed with PBS for 3 times. The nuclei were stained with DAPI. […] Fluorescence images were taken using a laser confocal microscope (SP8, Leica, Germany). At least four images per section were acquired for quantification, and the mean intensity were evaluated using ImageJ. The adipose tissue or 3T3-L1 adipocytes were homogenized by ultrasound in an ice-cold RIPA lysis buffer containing 1% PMSF and centrifuged at 12,000 × g at 4°C for 15 min to collect the supernatant. The BCA protein assay kit (Beyotime, Shanghai, China) was used to detect the total protein concentration. Proteins (20-30 μg) of the sample were separated by 10% SDS-PAGE gel and transferred onto polyvinylidene difluoride (PVDF) membranes. Then the PVDF membranes were blocked in 5% skim milk powder in TBS containing 1% Tween-20 (TBST) for 2 h at room temperature and washed with TBST for 3 times. […] After washing, the membranes were incubated with horseradish peroxidase-conjugated secondary antibodies (in 5% skim milk powder) for 1 h at room temperature. Finally, the membranes were treated with enhanced chemiluminescence agents (Tanon, Shanghai, China) and the signals were monitored using the Tanon 5200 multi chemiluminescent imaging system (Tanon, Shanghai, China).

TBK1 [2] = target: T1, TBK1; assay: TBK1 kinase activity in TNF-α induced 3T3-L1 adipocytes; assay type: cell-based, Murine; parameters: host or cells: differentiated 3T3-L1 adipocytes (Lipofectamine 2000); TBK1 kinase activity: unit not given here; settings: for TBK1 kinase activity: Figure 7g, replicates

CC(C)Cc1ccc(C(C)C(=O)[O-])cc1.COc1ccc2cc3[n+](cc2c1OC)CCc1cc2c(cc1-3)OCO2.O.O.O.O [BJ, berberine-ibuprofen]
Ikbke mRNA expression in BAT (Ikbke): had no effect | mRNA level of IKKε (Ikbke) in eWAT (Ikbke): significantly reduced | TBK1 (western blotting, Figure 9b) (TBK1 [1]; 10μM BJ): 0.1548 and 0.1822 and 0.1679 | UCP1 (western blotting, Figure 9d) (TBK1 [1]; 10μM BJ): 0.6444 and 0.6902 and 0.5582 | p-AMPK (western blotting, Figure 9c) (TBK1 [1]; 10μM BJ): 0.3674 and 0.4043 and 0.3553 | MitoTracker (immunofluorescence, Figure 9f) (TBK1 [1]; 10μM BJ): 22.957 and 24.343 and 25.025 and 18.793 and 24.708 and 21.147 and 28.941 and 23.595 and 21.858 and 24.262 and 23.917 and 27.936 | UCP1 (immunofluorescence, Figure 9g) (TBK1 [1]; 10μM BJ): 28.366 and 25.764 and 25.784 and 25.906 and 27.454 and 28.774 and 34.011 and 26.939 and 25.523 and 31.625 and 28.718 and 27.261 | Expression of p-AMPKα and UCP1 (TBK1 [1]; 3T3-L1 adipocytes, BJ alone, 24 h): significantly increased the expression of p-AMPKα and UCP1 | Expression levels of p-AMPKα and UCP1 (TBK1 [1]; TBK1-knockdown 3T3-L1 adipocytes treated with BJ, vs TBK1-knockdown): not significantly changed | TBK1 (western blotting, Figure 9b) (TBK1 [1]; siTBK1+10μM BJ): 0.1211 and 0.0965 and 0.1123 | UCP1 (western blotting, Figure 9d) (TBK1 [1]; siTBK1+10μM BJ): 0.7411 and 0.669 and 0.5981 | p-AMPK (western blotting, Figure 9c) (TBK1 [1]; siTBK1+10μM BJ): 0.4095 and 0.4234 and 0.498 | MitoTracker (immunofluorescence, Figure 9f) (TBK1 [1]; siTBK1+10μM BJ): 25.218 and 30.785 and 30.877 and 30.71 and 22.848 and 22.479 and 31.768 and 31.566 and 27.335 and 20.91 and 29.763 and 33.52 | UCP1 (immunofluorescence, Figure 9g) (TBK1 [1]; siTBK1+10μM BJ): 30.066 and 28.142 and 35.211 and 34.925 and 27.446 and 30.425 and 28.118 and 35.655 and 39.617 and 27.871 and 25.612 and 40.285 | TBK1 kinase activity (TBK1 [2]; TNF-α(50ng/ml)+3μM BJ): 30.9473 and 32.9827 and 24.4703 and 29.2741 and 25.0999 and 33.9831 | TBK1 kinase activity (TBK1 [2]; TNF-α(50ng/ml)+10μM BJ): 22.2193 and 16.8634 and 20.5634 and 20.4771 and 22.3055 and 16.9152 | TBK1 expression level / kinase activity (TBK1 [2]; TNF-α induced 3T3-L1 adipocytes, BJ treatment for 24 h): markedly decreased
